Experimental data taken from patent US20240309090A1, “MODULATION OF ANDROGEN SIGNALING TO INNATE IMMUNE KILLING OF PROSTATE CANCER” (Brown University, priority 2023, published 2024).

What was measured:
NK cells = test: Flow cytometry of NKG2A and PD-1 surface expression on NK cells; type: cell-based
Description: (§1) PCa cells were plated at a density of 3×10^5 cells per well of a 6-well plate and adhered overnight. […] After treatment, cells were trypsinized, stained, and incubated (Cell Staining Buffer SouthernBiotech #0225-01S) with the corresponding antibody for 45-60 min at 4° C. Viability dye was added with each run. NK-92 cells and patient-derived cells were stained similarly. Markers used for experiments included: Thermofisher HLA-E Monoclonal Antibody (3D12HLA-E), Alexa Fluor™ 488, eBioscience™, CD274 (PD-L1, B7-H1) Monoclonal Antibody (MIH1), eFluor™ 450, eBioscience™, Cell Signaling PD-1 (D4W2J) XPR Rabbit mAb, SYTOX™ Orange Dead Cell Stain, for flow cytometry, BioLegend APC anti-human CD159a (NKG2A) Antibody #375108, BioLegend APC anti-human CD69 Antibody #310909, BioLegend Alexa Fluor® 647 anti-human CD137 (4-1BB) [4B4-1] #309823. For staining of the patient-derived PBMCs and subsequent NK cell characterization, the following antibodies were used: BioLegend Anti-Perforin Mouse Monoclonal Antibody (PerCP Cy5.50, clone: dG9) #308113, BioLegend Anti-Granzyme B Mouse Monoclonal Antibody (FITC, clone: GB11) #515403, BioLegend Anti-CD56 Mouse Monoclonal Antibody (Alexa Fluor® 700, clone: 5.1H1) #362521, and BioLegend (PE anti-human CD45 Antibody) #304008.
Methods: PCa cell lines (LNCaP, 22Rv1 [ARv7 mutation], DU145[AR-], PC3 [AR-]) were cocultured with NK-92 cells and treated with ARi (enzalutamide [enza] and darolutamide [daro]) or in combination with anti-NKG2A antibody monalizumab. Immune cell-mediated tumor cell killing assays and multiplexed cytokine profiling were performed. NKc expression of NKG2A and PCa cells expression of HLA-E were investigated by flow cytometry. The AR-negative cell lines (PC3 and DU145) were stably transduced with a functional AR pathway to evaluate the modulation of HLA-E by AR. The activation status of peripheral blood NKc isolated from patients with PCa before and post-initiation of androgen deprivation therapy (ADT) was investigated by flow cytometry.

[1] = test system: PC cell lines (LNCap, 22Rv1, DU145, PC3); test: Co-cultures of PC cell lines with NK cells (1:1), immune-mediated PC killing; type: cell-based; details: for immune-mediated PC killing effect: Example 2, PC with NK-92 cells and patient-derived NK cells, within 24 hrs
Description: Prostate cancer cell lines were dyed with the blue CMAC live-cell dye (Thermo Fisher Scientific #C2110, per manufacturer protocol). Blue-fluorescent cancer cells were plated at a density of 10,000 cells per well of a 48-well plate. NK-92 cells were dyed with green CMFDA (Cayman Chemical Company #19583, per manufacturer protocol). Green-fluorescent NK-92 cells were added to the blue-fluorescent cancer cells at a 1:1 ratio. Enzalutamide (10 μM), darolutamide (20 μM), and 1 μM ethidium homodimer (EthD-1) were added at the same time as the NK cells. After 24 hours of co-culture, images of live cancer cells, live NK cells, and dead cells were taken using a fluorescent microscope. The co-culture experiments were run with internal control conditions and as a single treatment. Normalization was performed after analysis to take baseline death conditions into each experiment run. To optimize the high output of these experiments, a subset of co-cultures were performed using the ImageXpress® Micro Confocal High-Content Imaging. This analysis maintained the experiment conditions, drug concentrations, and the dyeing process. When GFP-labeled tumor cells were used for culture assays, they were added in a 1:1 ratio. Cell adhered over 24 h, and when patient-derived NK cells were added, a control well was trypsinized, and cells resuspended and counted to adjust a 1:1 ratio before treatment addition. The experiments with blocking antibodies were performed using the ImageXpress system. TRAIL blocking ab was purchased from Santa Cruz TRAIL Antibody (RIK-2): sc-56246, and IFN gamma blocking Monoclonal Antibody (NIB42, #6-7318-81) was purchased from Thermo Fisher. The blocking mAb was added when NK cells were combined with tumor cells.
Live cancer cells, NK cells, and dead cells were quantified using FIJI (Fiji Is Just ImageJ) software for images derived from fluorescent co-culture images. Images from the ImageXpress system were quantified using MetaXpress cytoplasmic/nuclear staining software. The percent of dead tumor cells in each well was quantified, and this percentage was normalized by subtracting baseline death from cancer cell-only wells, NK cell-only wells, or both. A two-way ANOVA was used to calculate the interaction effect between drug treatment and NK cells.
In groups with a significant interaction effect, data was further normalized in the cancer cell+NK cells+drug treatment well by subtracting out death in the cancer cell+drug well. A one-way ANOVA and multiple comparison analysis with subsequent t-tests were used to calculate the statistical significance of the difference between this group and the cancer cell+NK cell well. GraphPad Prism Version 9.5.1 was used for statistical analysis.
(§2) We conducted cell viability assays to investigate the effect of Enza and Daro on PC cells (LNCap, 22Rv1 [ARv7 mutation], DU145, PC3 [AR-]) and NK-92 cells. We performed co-culture experiments with PC and NK cells in a 1:1 ratio and analyzed immune cell-mediated tumor cell killing (ImageXpress Confocal HT). Cytokine profiling (Luminex 200) of culture supernatants was performed following treatment with ARi−/+ and anti-IFN-γ antibodies. In vivo studies were performed in NCr Nude mice harboring subcutaneous PC tumors treated orally with Daro (50 mg/kg/bid) and Enza (30 mg/kg/bid) for 4 weeks.
We performed ATP-based (CellTiter-Glo) viability assays to investigate the effect of Enzalutamide and Darolutamide on PC cell lines (LNCap, 22Rv1 [ARv7 mutation], DU145, PC3 [AR-]) and NK-92 cells. We performed co-culture experiments with PC and NK cells at a 1:1 ratio throughout 4 h, 6 h, 12 h, 24 h, and 48 h periods. We analyzed immune cell-mediated tumor cell killing in the presence of Enza and Darolutamide (ImageXpress Confocal HT). Western Blotting was performed to evaluate different protein expression levels and their regulation related to sensitivity in mediating immune-mediated cell killing (apoptotic family). […]

NK-92 cells = test: Flow cytometry of NK-92 activation markers CD69 and CD137; type: cell-based; details: NK-92 monoculture, 48 h
Description: The surface expression of the NK cell activation markers CD69 and CD137 were also evaluated following the treatment of NK cell monocultures with ARi (FIG. 13D-E).
as §1

[2] = test system: PC tumors (PC3, 22Rv1 xenograft); test: NK cell infiltration in subcutaneous PC tumors of treated mice; type: in vivo, NCr Nude mice; details: oral, Daro 50 mg/kg/bid, Enza 30 mg/kg/bid, 4 weeks
Description: as §2
In vivo studies were performed in NCr Nude mice harboring subcutaneous PC tumors treated orally with Daro (50 mg/kg/bid) and Enza (30 mg/kg/bid) for 4 weeks.

[3] = Example 1, PC + NK-92, within 24 hours
[4] = Example 2, PC + NK-92, within 24 hours, blocking mAbs 10 ug/ml

Row | Compound | surface expression of NKG2A (NK cells) | immune-mediated PC killing [1, 3] | immune-mediated PC killing [1, 4] | immune-mediated PC killing effect [1] | expression of CD69 (NK-92 cells) | expression of CD137 (NK-92 cells) | NK cell infiltration in the tumor microenvironment [2]
1 | CC(O)c1cc(C(=O)N[C@@H](C)Cn2ccc(-c3ccc(C#N)c(Cl)c3)n2)n[nH]1 (some centres unmarked) [darolutamide] | modulate | 41% | 36% | 36% | 88.63% | 64.87% | increased
2 | CNC(=O)c1ccc(N2C(=S)N(c3ccc(C#N)c(C(F)(F)F)c3)C(=O)C2(C)C)cc1F [enzalutamide] | modulate | 36% | 40% | 40% | 87.4% | 61.54% | increased
